pIC50: −log10 of the molar value. Like-named read-outs stand apart in the source and are kept apart here.
Key:
Format in all cases: cell-based, human
H2009 = assay: Cell viability dose-response, H2009; settings: Homo sapiens, 12-point dose-response starting at 50 micromolar; for pIC50: NCI-H2009, 3-fold increments, in duplicate, read-out: toxicity data, H2009; for AC50: NCI-H2009, Table 8
Description: (§1) FIG. 6A. […] Cell viability is plotted vs. compound concentration. Compound was added to cells plated at 15% confluence in 96-well plates in RPMI-1640 media supplemented with 5% Fetal Bovine Serum and 2 mM L-Glutamine. After 4 days of incubation, ATP levels were measured using Cell Titer Glo (Promega). Data are presented as the average of 2 replicates ±SEM.
(§2) Selectivity may be measured by the half maximal inhibitory concentration (IC50), which, as used herein, is a measure of the effectiveness of a compound in killing cells. This quantitative measure indicates how much of a particular compound is needed to kill a particular cell population by half (e.g., as indicated by the amount of ATP). […] The IC50 can be determined by constructing a dose-response curve. The lower the IC50, the higher the potency, and the greater the difference between IC50 values for different cell lines (e.g., sensitive lines vs. insensitive lines, and sensitive lines vs. normal lines) the greater the selectivity. […]
(§3) With this information, we synthesized and tested a series of small molecules derived in conception from the oxalamide and chromone scaffold including N-acyl ureas, as shown in Tables 6-8. Each compound was tested in a 12-point dose-response study starting at 50 micromolar and decreasing in 3-fold increments to sub-nanomolar concentrations, in duplicate. Additionally, one or more additional cell line was tested in the same way.

HCC44 = assay: Cell viability dose-response, HCC44; settings: Homo sapiens; for pIC50: HCC44, 12-point dose-response starting at 50 micromolar, 3-fold increments, in duplicate, read-out: toxicity data, HCC44; for AC50: HCC44, Table 8, 12-point dose-response starting at 50 micromolar
Description: as §1, §2, §3

H2122 = assay: Cell viability dose-response, H2122; settings: Homo sapiens; for AC50: NCI-H2122, Table 8, 12-point dose-response starting at 50 micromolar
Outline: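 Cells plated at 15% confluence in RPMI-1640 with 5% FBS and 2 mM L-glutamine, treated with compound in a 12-point, 3-fold dilution series from 50 micromolar, in duplicate. ATP measured by Cell Titer Glo after 4 days; IC50 taken from the dose-response curve.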

[1] = NCI-H2122, 12-point dose-response starting at 50 micromolar, 3-fold increments, in duplicate, read-out: toxicity data, H2122
[2] = NCI-H2122, Table 9, competitor, read-out: IC50 to H2122 cells

Compound: COc1ccc(C(=O)Nc2ccc(C(=O)c3ccccc3)cc2)cc1 [SW208465-1-A]
- pIC50 (H2009): ≤ 4.31
- pIC50 (HCC44): ≤ 4.31
- pIC50 (H2122; NCI-H2122, read-out: toxicity data, H2122): ≤ 4.31

Compound: COc1ccc(CCC(=O)Nc2ccc(C(=O)c3ccccc3)cc2)cc1 [SW208466-1-A]
- pIC50 (H2009): ≤ 4.31
- pIC50 (HCC44): ≤ 4.31
- pIC50 (H2122; [1]): ≤ 4.31

Compound: O=c1c(Oc2ccccc2F)coc2cc(OCc3cnn(-c4cccc(F)c4)c3)ccc12 [SW208467]
- AC50 (H2009): 12.6 µM
- AC50 (HCC44): 49.5 µM
- AC50 (H2122): ≥ 49.5 µM

Compound: O=c1c(Oc2ccccc2F)coc2cc(OCc3cnn(-c4ccc(F)cc4)c3)ccc12 [SW208468]
- AC50 (H2009): 22.3 µM
- AC50 (HCC44): 49.5 µM
- AC50 (H2122): ≥ 49.5 µM

Compound: O=c1c(Oc2ccccc2F)coc2cc(OCc3cnn(-c4ccc(Cl)cc4)c3)ccc12 [SW208469]
- AC50 (H2009): 16.5 µM
- AC50 (HCC44): 49.5 µM
- AC50 (H2122): ≥ 49.5 µM

Compound: COc1ccc(CCCC(=O)Nc2ccc(C(=O)c3ccccc3)cc2)cc1 [SW208470-1-A]
- pIC50 (H2009): 4.46
- pIC50 (HCC44): 4.46
- pIC50 (H2122; [1]): ≤ 4.31

Compound: COc1ccc(CCCCC(=O)Nc2ccc(C(=O)c3ccccc3)cc2)cc1 [SW208480-1-A]
- pIC50 (H2009): ≤ 4.31
- pIC50 (HCC44): 5.85
- pIC50 (H2122; [1]): 5.60

Compound: O=C(NCCc1ccc(O)cc1)NC(=O)c1ccc(COc2ccccc2)cc1 [SW208522-1-A]
- pIC50 (H2009): 8.00
- pIC50 (HCC44): 8.00
- pIC50 (H2122; [1]): 8.00
- pIC50 (H2122; [2]): 7.32

Compound: O=C(NCCc1ccc(O)cc1)NC(=O)c1ccc(Oc2ccccc2)cc1 [SW208523-1-A]
- pIC50 (H2009): 7.70
- pIC50 (HCC44): 7.70
- pIC50 (H2122; [1]): 7.70

Compound: O=C(NCCc1ccc(O)cc1)NC(=O)c1ccc(OCc2ccccc2)cc1 [SW208524-1-A]
- pIC50 (H2009): 8.00
- pIC50 (HCC44): 8.00
- pIC50 (H2122; [1]): 7.70

Compound: COc1ccc(CCNC(=O)NC(=O)c2ccc(Nc3ccccc3)cc2)cc1 [SW208561-1-A]
- pIC50 (H2009): 6.06
- pIC50 (HCC44): 7.52
- pIC50 (H2122; [1]): 7.10
- pIC50 (H2122; [2]): 7.12

Compound: O=C(NCCc1ccc(O)cc1)NC(=O)c1ccc(Nc2ccccc2)cc1 [SW208562-1-A]
- pIC50 (H2009): 8.00
- pIC50 (HCC44): 4.91
- pIC50 (H2122; [1]): 7.05
- pIC50 (H2122; [2]): 7.13

Compound: COc1ccc(CCNC(=O)NC(=O)c2ccc(C(Cl)c3ccccc3)cc2)cc1 (centres unmarked) [SW208563-1-A]
- pIC50 (H2009): 6.00
- pIC50 (HCC44): 7.52
- pIC50 (H2122; [1]): 7.22

Compound: COc1ccc(CCNC(=O)NC(=O)c2ccc(C(N)c3ccccc3)cc2)cc1 (centres unmarked) [SW208564-1-A]
- pIC50 (H2009): 5.25
- pIC50 (HCC44): 7.22
- pIC50 (H2122; [1]): 6.49

Compound: COc1ccc(CCNC(=O)NC(=O)c2ccc(O)cc2)cc1 [SW208565-1-A]
- pIC50 (H2009): 5.23
- pIC50 (HCC44): 5.56
- pIC50 (H2122; [1]): 4.74

Compound: COc1ccc(CCNC(=O)N(C)C(=O)c2ccc(C(=O)c3ccccc3)cc2)cc1 [SW208566-1-A]
- pIC50 (H2009): 4.99
- pIC50 (HCC44): 5.11
- pIC50 (H2122; [1]): 5.21

Compound: COc1ccc(CCN(C)C(=O)N(C)C(=O)c2ccc(C(=O)c3ccccc3)cc2)cc1 [SW208567-1-A]
- pIC50 (H2009): 4.78
- pIC50 (HCC44): 5.10
- pIC50 (H2122; [1]): 4.81

Compound: COc1cccc(C(=O)c2ccc(C(=O)NC(=O)NCCc3ccc(O)cc3)cc2)c1 [SW208579-1-A]
- pIC50 (H2009): 6.38
- pIC50 (HCC44): 6.34
- pIC50 (H2122; [1]): 6.09

Compound: COc1ccccc1C(=O)c1ccc(C(=O)NC(=O)NCCc2ccc(O)cc2)cc1 [SW208580-1-A]
- pIC50 (H2009): 5.67
- pIC50 (HCC44): 5.09
- pIC50 (H2122; [1]): 5.02
- pIC50 (H2122; [2]): 6.10

Compound: Cc1ccccc1C(=O)c1ccc(C(=O)NC(=O)NCCc2ccc(O)cc2)cc1 [SW208581-1-A]
- pIC50 (H2009): 6.29
- pIC50 (HCC44): 6.06
- pIC50 (H2122; [1]): 5.82

Compound: Cc1cccc(C(=O)c2ccc(C(=O)NC(=O)NCCc3ccc(O)cc3)cc2)c1 [SW208582-1-A]
- pIC50 (H2009): 6.30
- pIC50 (HCC44): 5.82
- pIC50 (H2122; [1]): 5.56
- pIC50 (H2122; [2]): 6.10

Compound: COc1ccc(CC(=O)Nc2ccc(C(=O)c3ccccc3)cc2)cc1 [SW208583-1-A]
- pIC50 (H2009): ≤ 4.31
- pIC50 (HCC44): 5.37
- pIC50 (H2122; [1]): 5.47

Compound: O=c1c(Oc2cccc(F)c2)coc2cc(OCc3cnn(-c4ccccc4)c3)ccc12 [SW208592-1]
- AC50 (H2009): 16.5 µM
- AC50 (HCC44): 0.08 µM
- AC50 (H2122): 0.15 µM

From US9789096B2, “Methods and compositions for selective and targeted cancer therapy” (Board of Regents of the University of Texas System, priority 2013, dated 2017)
